Experimental data reported in publication PMC7531004, “Discovery of gramicidin A analogues with altered activities by multidimensional screening of a one-bead-one-compound library” (Nature Communications, 2020).
Where a SMILES comes first, the peptide text is derived from it. [ ]: non-standard residue; d: D form. The star is where a group is joined. NHCH2CH2OH = OCCN*; For = O=C*

Columns and labels:
[1] = H+/Na+ transport assay of bead-derived peptides (one-point); type: biochemical; set-up: key: relative activity; mean of two control wells = 1.00; details: bead-derived peptide solution, EYPC/EYPG LUVs;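 further: relative to parent gramicidin A activity set to 1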
How it was run: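 Miniaturized 96-well format. LUVs with entrapped pyranine (1.0 mM) were exposed to peptide for 30 min at RT. Intensities were expressed relative to full lysis by Triton X-100 and no treatment, with control-well mean = 1.00.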

[2] = system: Streptococcus pyogenes SSI-9; experiment: Antibacterial activity assay of bead-derived peptides (three concentrations); type: cell-based; set-up: key: +++: inhibition by the 640-fold diluted peptide solution; ++: inhibition by the 160-fold diluted solution; +: inhibition by the 40-fold diluted solution; -: no inhibition; details: S. pyogenes, bead-derived peptide solution, three concentrations
How it was run: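 Bead-derived library peptide stocks in DMSO were tested undiluted and after 4- and 16-fold DMSO dilution against S. pyogenes SSI-9 (2 × 10^5 CFU/well) in cation-adjusted Mueller Hinton Broth with 5% laked horse blood. After 18 h at 37 °C, wells were scored for precipitation of grown cells.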

[3] = system: P388 mouse leukemia cells; details: 92 h
How it was run: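 First, library peptide stocks are diluted 250-fold in RPMI1640 with 10% heat-inactivated FBS. Next, they are mixed with P388 cells to give 1 × 10^4 cells/mL and incubated 92 h at 37 °C, 5% CO2. Finally, viability (%) is scored by WST-1 absorbance at 415 nm.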

| Compound | H+/Na+ transport activity normalized against the value of 1 (1.00) [1] | antibacterial activity [2] | cell viability/% [3] |
| --- | --- | --- | --- |
| CNC(=O)C[C@@H](NC(=O)[C@@H](NC(=O)[C@@H](CC(C)C)NC(=O)[C@H](C)NC(=O)[C@@H](CC(C)C)NC(=O)[C@H](C)NC(=O)CNC(=O)[C@@H](NC=O)C(C)C)C(C)C)C(=O)N[C@@H](Cc1c[nH]c2ccccc12)C(=O)N[C@H](CC(C)C)C(=O)N[C@@H](Cc1c[nH]c2ccccc12)C(=O)N[C@H](CC(C)C)C(=O)N[C@@H](Cc1c[nH]c2ccccc12)C(=O)N[C@@H](C(=O)N[C@@H](Cc1c[nH]c2ccccc12)C(=O)NCCO)[C@H](C)O [compound 5746] (For-VGA[dL]A[dL]V[dD](NHMe)W[dL]W[dL]W[dT]W-NHCH2CH2OH) | 1.26 | - | 100.0% |
| CNC(=O)C[C@@H](NC(=O)[C@@H](NC(=O)[C@H](NC(=O)[C@H](C)NC(=O)[C@H](NC(=O)[C@H](C)NC(=O)CNC(=O)[C@@H](NC=O)C(C)C)C(C)C)C(C)C)C(C)C)C(=O)N[C@@H](Cc1c[nH]c2ccccc12)C(=O)N[C@H](CC(C)C)C(=O)N[C@@H](Cc1c[nH]c2ccccc12)C(=O)N[C@H](CC(C)C)C(=O)N[C@@H](Cc1c[nH]c2ccccc12)C(=O)N[C@@H](C(=O)N[C@@H](Cc1c[nH]c2ccccc12)C(=O)NCCO)C(C)C [compound 5771] (For-VGA[dV]A[dV]V[dD](NHMe)W[dL]W[dL]W[dV]W-NHCH2CH2OH) | 1.46 | - | 79.3% |
| CNC(=O)C[C@@H](NC(=O)[C@@H](NC(=O)[C@H](NC(=O)[C@H](C)NC(=O)[C@@H](CC(C)C)NC(=O)[C@H](C)NC(=O)CNC(=O)[C@@H](NC=O)C(C)C)C(C)C)C(C)C)C(=O)N[C@@H](Cc1c[nH]c2ccccc12)C(=O)N[C@@H](C(=O)N[C@@H](Cc1c[nH]c2ccccc12)C(=O)N[C@H](CC(C)C)C(=O)N[C@@H](Cc1c[nH]c2ccccc12)C(=O)N[C@@H](C(=O)N[C@@H](Cc1c[nH]c2ccccc12)C(=O)NCCO)C(C)C)C(C)C [compound 5778] (For-VGA[dL]A[dV]V[dD](NHMe)W[dV]W[dL]W[dV]W-NHCH2CH2OH) | 1.19 | - | 77.8% |
| CC(C)C[C@@H](NC(=O)[C@H](C)NC(=O)[C@H](NC(=O)[C@H](C)NC(=O)CNC(=O)[C@@H](NC=O)C(C)C)C(C)C)C(=O)N[C@H](C(=O)N[C@@H](C(=O)N[C@@H](Cc1c[nH]c2ccccc12)C(=O)N[C@H](CC(C)C)C(=O)N[C@@H](Cc1c[nH]c2ccccc12)C(=O)N[C@H](CC(C)C)C(=O)N[C@@H](Cc1c[nH]c2ccccc12)C(=O)N[C@@H](C(=O)N[C@@H](Cc1c[nH]c2ccccc12)C(=O)NCCO)C(C)C)C(C)C)C(C)C [compound 5872] (For-VGA[dV]A[dL]V[dV]W[dL]W[dL]W[dV]W-NHCH2CH2OH) | 1.02 | + | 9.9% |
| CC(C)C[C@@H](NC(=O)[C@H](Cc1c[nH]c2ccccc12)NC(=O)[C@H](NC(=O)[C@H](Cc1c[nH]c2ccccc12)NC(=O)[C@H](NC(=O)[C@@H](NC(=O)[C@H](NC(=O)[C@H](C)NC(=O)[C@H](NC(=O)[C@H](C)NC(=O)CNC(=O)[C@@H](NC=O)C(C)C)[C@H](C)O)C(C)C)C(C)C)C(C)C)C(C)C)C(=O)N[C@@H](Cc1c[nH]c2ccccc12)C(=O)N[C@@H](C(=O)N[C@@H](Cc1c[nH]c2ccccc12)C(=O)NCCO)C(C)C [compound 5933] (For-VGA[dT]A[dV]V[dV]W[dV]W[dL]W[dV]W-NHCH2CH2OH) | 1.05 | - | 73.0% |
| CC(C)C[C@@H](NC(=O)[C@H](C)NC(=O)CNC(=O)[C@@H](NC=O)C(C)C)C(=O)N[C@@H](C)C(=O)N[C@H](CC(C)C)C(=O)N[C@H](C(=O)N[C@H](CC(C)C)C(=O)N[C@@H](Cc1c[nH]c2ccccc12)C(=O)N[C@@H](C(=O)N[C@@H](Cc1c[nH]c2ccccc12)C(=O)N[C@@H](C(=O)N[C@@H](Cc1c[nH]c2ccccc12)C(=O)N[C@@H](C(=O)N[C@@H](Cc1c[nH]c2ccccc12)C(=O)NCCO)C(C)C)C(C)C)[C@H](C)O)C(C)C [compound 5996] (For-VGA[dL]A[dL]V[dL]W[dT]W[dV]W[dV]W-NHCH2CH2OH) | 1.08 | - | 78.7% |
| CC(C)C[C@@H](NC(=O)[C@H](C)NC(=O)CNC(=O)[C@@H](NC=O)C(C)C)C(=O)N[C@@H](C)C(=O)N[C@H](CC(C)C)C(=O)N[C@H](C(=O)N[C@H](CC(C)C)C(=O)N[C@@H](Cc1c[nH]c2ccccc12)C(=O)N[C@@H](C(=O)N[C@@H](Cc1c[nH]c2ccccc12)C(=O)N[C@H](CC(C)C)C(=O)N[C@@H](Cc1c[nH]c2ccccc12)C(=O)N[C@@H](C(=O)N[C@@H](Cc1c[nH]c2ccccc12)C(=O)NCCO)C(C)C)C(C)C)C(C)C [compound 6096] (For-VGA[dL]A[dL]V[dL]W[dV]W[dL]W[dV]W-NHCH2CH2OH) | 1.16 | + | 7.3% |
| CC(C)C[C@@H](NC(=O)[C@H](Cc1c[nH]c2ccccc12)NC(=O)[C@H](NC(=O)[C@H](Cc1c[nH]c2ccccc12)NC(=O)[C@@H](CC(C)C)NC(=O)[C@@H](NC(=O)[C@H](NC(=O)[C@H](C)NC(=O)[C@H](NC(=O)[C@H](C)NC(=O)CNC(=O)[C@@H](NC=O)C(C)C)[C@H](C)O)C(C)C)C(C)C)C(C)C)C(=O)N[C@@H](Cc1c[nH]c2ccccc12)C(=O)N[C@@H](C(=O)N[C@@H](Cc1c[nH]c2ccccc12)C(=O)NCCO)C(C)C [compound 6116] (For-VGA[dT]A[dV]V[dL]W[dV]W[dL]W[dV]W-NHCH2CH2OH) | 1.13 | - | 93.5% |
| CC(C)C[C@@H](NC(=O)[C@H](Cc1c[nH]c2ccccc12)NC(=O)[C@H](NC(=O)[C@H](Cc1c[nH]c2ccccc12)NC(=O)[C@H](NC(=O)[C@@H](NC(=O)[C@H](NC(=O)[C@H](C)NC(=O)[C@H](NC(=O)[C@H](C)NC(=O)CNC(=O)[C@@H](NC=O)C(C)C)C(C)C)C(C)C)C(C)C)C(C)C)C(C)C)C(=O)N[C@@H](Cc1c[nH]c2ccccc12)C(=O)N[C@@H](C(=O)N[C@@H](Cc1c[nH]c2ccccc12)C(=O)NCCO)C(C)C [compound 6165] (For-VGA[dV]A[dV]V[dV]W[dV]W[dL]W[dV]W-NHCH2CH2OH) | 1.07 | - | 67.9% |
| CC(C)C[C@@H](NC(=O)[C@H](C)NC(=O)CNC(=O)[C@@H](NC=O)C(C)C)C(=O)N[C@@H](C)C(=O)N[C@@H](C(=O)N[C@H](C(=O)N[C@@H](C(=O)N[C@@H](Cc1c[nH]c2ccccc12)C(=O)N[C@@H](C(=O)N[C@@H](Cc1c[nH]c2ccccc12)C(=O)N[C@H](CC(C)C)C(=O)N[C@@H](Cc1c[nH]c2ccccc12)C(=O)N[C@H](CC(C)C)C(=O)N[C@@H](Cc1c[nH]c2ccccc12)C(=O)NCCO)C(C)C)[C@H](C)O)C(C)C)C(C)C [compound 6225] (For-VGA[dL]A[dV]V[dT]W[dV]W[dL]W[dL]W-NHCH2CH2OH) | 1.10 | - | 80.8% |
| CC(C)C[C@@H](NC(=O)[C@H](C)NC(=O)[C@H](NC(=O)[C@H](C)NC(=O)CNC(=O)[C@@H](NC=O)C(C)C)[C@H](C)O)C(=O)N[C@H](C(=O)N[C@H](CC(C)C)C(=O)N[C@@H](Cc1c[nH]c2ccccc12)C(=O)N[C@@H](C(=O)N[C@@H](Cc1c[nH]c2ccccc12)C(=O)N[C@H](CC(C)C)C(=O)N[C@@H](Cc1c[nH]c2ccccc12)C(=O)N[C@@H](C(=O)N[C@@H](Cc1c[nH]c2ccccc12)C(=O)NCCO)C(C)C)[C@H](C)O)C(C)C [compound 6248] (For-VGA[dT]A[dL]V[dL]W[dT]W[dL]W[dV]W-NHCH2CH2OH) | 1.10 | - | 87.7% |
| CC(C)C[C@@H](NC(=O)[C@H](C)NC(=O)CNC(=O)[C@@H](NC=O)C(C)C)C(=O)N[C@@H](C)C(=O)N[C@@H](C(=O)N[C@H](C(=O)N[C@@H](C(=O)N[C@@H](Cc1c[nH]c2ccccc12)C(=O)N[C@H](CC(C)C)C(=O)N[C@@H](Cc1c[nH]c2ccccc12)C(=O)N[C@H](CC(C)C)C(=O)N[C@@H](Cc1c[nH]c2ccccc12)C(=O)N[C@H](CC(C)C)C(=O)N[C@@H](Cc1c[nH]c2ccccc12)C(=O)NCCO)C(C)C)C(C)C)C(C)C [compound 6292] (For-VGA[dL]A[dV]V[dV]W[dL]W[dL]W[dL]W-NHCH2CH2OH) | 1.25 | ++ | 5.4% |
| CNC(=O)C[C@@H](NC(=O)[C@H](Cc1c[nH]c2ccccc12)NC(=O)[C@@H](CC(C)C)NC(=O)[C@H](Cc1c[nH]c2ccccc12)NC(=O)[C@H](NC(=O)[C@H](Cc1c[nH]c2ccccc12)NC(=O)[C@H](NC(=O)[C@@H](NC(=O)[C@@H](CC(C)C)NC(=O)[C@H](C)NC(=O)[C@H](NC(=O)[C@H](C)NC(=O)CNC(=O)[C@@H](NC=O)C(C)C)C(C)C)C(C)C)C(C)C)C(C)C)C(=O)N[C@@H](Cc1c[nH]c2ccccc12)C(=O)NCCO [compound 6329] (For-VGA[dV]A[dL]V[dV]W[dV]W[dL]W[dD](NHMe)W-NHCH2CH2OH) | 1.03 | - | 43.5% |
